Data as given in patent US12226405B2, “Compounds and compositions for inhibiting the activity of HIF2-alpha and their methods of use” (Novartis AG, priority 2020, dated 2025).
Where two headings read alike, the source gives them in different places.

Experiments:
[1] = test system: HIF2α-regulated expression of the endogenous target gene hEGLN3 in 786-O cells; assay: Cellular iScript assay for HIF2α (quantitative RT-PCR of hEGLN3); type: cell-based, human; conditions: Homo sapiens, 786-0, 48 hours incubation
In short: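 786-O cells were exposed to eleven 2-fold compound dilutions for 48 h at 37° C. Lysates underwent one-step TaqMan qRT-PCR for hEGLN3 with beta-actin as reference; 2^(−ΔΔCt) versus DMSO, as % of control, was fit with a four-parameter model to give IC50.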

[2] = test system: HIF2α-dependent transcription in 786-O-HRE-Luc cells; assay: In vitro cellular hypoxia response element (HRE) reporter gene assay (RGA) for HIF2α; type: cell-based, human; conditions: Homo sapiens, 24 hours incubation
In short: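 Renal carcinoma cells carrying a 4×HRE-driven PEST-destabilised firefly luciferase were treated a day after seeding with eleven 2-fold compound dilutions (0.1% DMSO) for 24 h at 37° C. BrightGlo luminescence, background-subtracted and expressed as % of DMSO control, was fitted four-parametrically for IC50.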

[3] = molecular target: T1, HIF2α PAS-B domain (236-350, biotinylated on the N-terminus) (Homo sapiens (Human), UniProt Q99814); assay: biochemical
Protocol: (§1) The assay buffer contained 50 mM Tris-HCl pH7 (Sigma), 20 mM NaCl (Fluka), 0.02% BSA (Sigma), 0.005% Triton X-100 (Pierce) and 1 mM DTT (Fluka). After a 30 min incubation period, 5 μL Streptavidin PVT SPA Beads (Perkin Elmer) at 1.2 mg/mL, diluted in the buffer, were added.

[4] = molecular target: T1, HIF2α PAS-B domain (236-350, biotinylated on the N-terminus)
Protocol: as §1

T1 sequence (Q99814 236-350): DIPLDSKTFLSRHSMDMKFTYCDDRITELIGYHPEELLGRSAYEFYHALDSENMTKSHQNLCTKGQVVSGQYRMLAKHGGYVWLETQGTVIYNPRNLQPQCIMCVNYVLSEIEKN

| Structure (SMILES) | IC50 [1] [nM] | IC50 [2] [nM] | IC50 [3] [nM] | IC50 [4] [nM] |
| --- | --- | --- | --- | --- |
| FC1=CC(C(F)(F)F)=CN2CC3(CCCc4c3ccc(F)c4F)N=C12 (racemic) [Example 78, rac-5′,6′,8-trifluoro-6-(trifluoromethyl)-3′,4′-dihydro-2′H,3H-spiro[imidazo[1,2-a]pyridine-2,1′-naphthalene]] | 161 | 4230 | 8 |  |
| FC(F)OC1=CC(C(F)(F)F)=CN2CC3(CCCc4c(Br)cccc43)N=C12 (racemic) [Example 81, rac-5′-bromo-8-(difluoromethoxy)-6-(trifluoromethyl)-3′,4′-dihydro-2′H,3H-spiro[imidazo[1,2-a]pyridine-2,1′-naphthalene]] | 57 | 143 | ≤ 10 |  |
| FC(F)OC1=CC(C(F)(F)F)=CN2CC3(CCCc4cnccc43)N=C12 (racemic) [Example 93, rac-8-(difluoromethoxy)-6-(trifluoromethyl)-7′,8′-dihydro-3H,6′H-spiro[imidazo[1,2-a]pyridine-2,5′-isoquinoline]] | 178 |  | 12 |  |
| Fc1cccc2c1OC[C@H](F)[C@@]21CN2C=C(C(F)(F)F)C=C(OC(F)F)C2=N1 (racemic) [Example 101, rac-8′-(difluoromethoxy)-3,8-difluoro-6′-(trifluoromethyl)-3′H-spiro[chromane-4,2′-imidazo[1,2-a]pyridine]] | 149 |  | 15 |  |
| Fc1c(C(F)(F)F)ccc2c1COCC21CN2C=C(C(F)(F)F)C=C(OC(F)F)C2=N1 (racemic) [Example 108, rac-8-(difluoromethoxy)-8′-fluoro-6,7′-bis(trifluoromethyl)-3H-spiro[imidazo[1,2-a]pyridine-2,4′-isochroman]] | 156 | 692 | 29 |  |
| FC(F)OC1=CC(C(F)(F)F)=CN2CC3(CCCOc4c(Cl)cccc43)N=C12 (racemic) [Example 118, rac-9-chloro-8′-(difluoromethoxy)-6′-(trifluoromethyl)-3,4-dihydro-2H,3′H-spiro[benzo[b]oxepine-5,2′-imidazo[1,2-a]pyridine]] | 161 | 1030 | 16 |  |
| FC(F)OC1=CC(C(F)(F)F)=CN2C[C@]3(CCOc4cc(C(F)(F)F)ccc43)N=C12 [(R)-8′-(difluoromethoxy)-6′,7-bis(trifluoromethyl)-3′H-spiro[chroman-4,2′-imidazo[1,2-a]pyridine]] |  |  | > 10000 |  |
| Fc1c(Br)ccc2c1CC[C@@]21CN2C=C(C(F)(F)F)C=C(OC(F)F)C2=N1 [Example 1, (S)-5′-bromo-8-(difluoromethoxy)-4′-fluoro-6-(trifluoromethyl)-2′,3′-dihydro-3H-spiro[imidazo[1,2-a]pyridine-2,1′-indene]] | 65 | 232 | ≤ 3 |  |
| O[C@H]1c2c(ccc(Br)c2F)[C@]2(CN3C=C(C(F)(F)F)C=C(OC(F)F)C3=N2)CC1(F)F [Example 18, (1′S,4'S)-6′-bromo-8-(difluoromethoxy)-3′,3′,5′-trifluoro-6-(trifluoromethyl)-3′,4′-dihydro-2′H,3H-spiro[imidazo[1,2-a]pyridine-2,1′-naphthalen]-4′-ol] | 37 | 92 | 6 |  |
| N#Cc1ccc2c(c1Cl)OCC[C@@]21CN2C=C(C(F)(F)F)C=C(OC(F)F)C2=N1 [Example 96, (S)-8-chloro-8′-(difluoromethoxy)-6′-(trifluoromethyl)-3′H-spiro[chromane-4,2′-imidazo[1,2-a]pyridine]-7-carbonitrile] | 199 | 518 |  | 32 |
| Fc1c(Cl)ccc2c1OC[C@H](F)[C@@]21CN2C=C(C(F)(F)F)C=C(OC(F)F)C2=N1 [Example 97, (3R,4S)-7-chloro-8′-(difluoromethoxy)-3,8-difluoro-6′-(trifluoromethyl)-3′H-spiro[chromane-4,2′-imidazo[1,2-a]pyridine]] | 57 | 193 |  | 11 |
| Fc1ccc2c(c1F)OC[C@H](F)[C@@]21CN2C=C(C(F)(F)F)C=C(OC(F)F)C2=N1 [Example 98, (3R,4S)-8′-(difluoromethoxy)-3,7,8-trifluoro-6′-(trifluoromethyl)-3′H-spiro[chromane-4,2′-imidazo[1,2-a]pyridine]] | 104 | 120 |  | 17 |
| CSc1ccc2c(c1F)OCC[C@@]21CN2C=C(C(F)(F)F)C=C(OC(F)F)C2=N1 [Example 99, (S)-8′-(difluoromethoxy)-8-fluoro-7-(methylthio)-6′-(trifluoromethyl)-3′H-spiro[chromane-4,2′-imidazo[1,2-a]pyridine]] | 71 | 286 |  | 10 |
| FC(F)OC1=CC(C(F)(F)F)=CN2C[C@@]3(CCOc4c3ccc(Br)c4Cl)N=C12 [Example 100, (S)-7-bromo-8-chloro-8′-(difluoromethoxy)-6′-(trifluoromethyl)-3′H-spiro[chromane-4,2′-imidazo[1,2-a]pyridine]] | 63 | 106 |  | 4 |
| FC(F)OC1=CC(C(F)(F)F)=CN2C[C@@]3(CCOc4c3ccc(Br)c4Br)N=C12 [Example 102, (S)-7,8-dibromo-8′-(difluoromethoxy)-6′-(trifluoromethyl)-3′ H-spiro[chromane-4,2′-imidazo[1,2-a]pyridine]] | 48 | 66 |  | 11 |
| COc1ccc2c(c1F)OCC[C@@]21CN2C=C(C(F)(F)F)C=C(OC(F)F)C2=N1 [Example 103, (S)-8′-(difluoromethoxy)-8-fluoro-7-methoxy-6′-(trifluoromethyl)-3′H-spiro[chromane-4,2′-imidazo[1,2-a]pyridine]] | 109 | 417 |  | 42 |
| FC(F)OC1=CC(C(F)(F)F)=CN2C[C@@]3(CCOc4c(C(F)(F)F)cccc43)N=C12 [Example 104, (S)-8′-(difluoromethoxy)-6′,8-bis(trifluoromethyl)-3′H-spiro[chromane-4,2′-imidazo[1,2-a]pyridine]] | 118 | 624 |  | ≤ 5 |
| Fc1c(OC(F)(F)F)ccc2c1OCC[C@@]21CN2C=C(C(F)(F)F)C=C(OC(F)F)C2=N1 [Example 105, (S)-8′-(difluoromethoxy)-8-fluoro-7-(trifluoromethoxy)-6′-(trifluoromethyl)-3′H-spiro[chromane-4,2′-imidazo[1,2-a]pyridine]] | 183 | 248 |  | 21 |
| Fc1c(SC(F)F)ccc2c1OCC[C@@]21CN2C=C(C(F)(F)F)C=C(OC(F)F)C2=N1 [Example 106, (S)-8′-(difluoromethoxy)-7-((difluoromethyl)thio)-8-fluoro-6′-(trifluoromethyl)-3′H-spiro[chromane-4,2′-imidazo[1,2-a]pyridine]] | 81 | 148 |  | 10 |
| FC(F)OC1=CC(C(F)(F)F)=CN2C[C@@]3(CCOc4c(Br)cccc43)N=C12 [Example 107, (S)-8-bromo-8′-(difluoromethoxy)-6′-(trifluoromethyl)-3′H-spiro[chromane-4,2′-imidazo[1,2-a]pyridine]] | 189 | 807 |  | 7 |
| [2H]C1C([2H])([2H])Sc2c(F)cccc2[C@]12CN1C=C(C#N)C=C(OC(F)F)C1=N2 (stereo partly drawn) [Example 109, (2S)-8-(difluoromethoxy)-8′-fluoro-3H-spiro[imidazo[1,2-a]pyridine-2,4′-thiochromane]-6-carbonitrile-2′,2′,3′-d3] | 42 | 90 |  | 4 |
| N#Cc1ccc2c(c1F)SCC[C@@]21CN2C=C(C(F)(F)F)C=C(OC(F)F)C2=N1 [Example 111, (S)-8-(difluoromethoxy)-8′-fluoro-6-(trifluoromethyl)-3H-spiro[imidazo[1,2-a]pyridine-2,4′-thiochromane]-7′-carbonitrile] | 43 | 100 |  | 9 |
| N#CC1=CN2C[C@@]3(CCSc4c3ccc(F)c4F)N=C2C(OC(F)F)=C1 [Example 112, (S)-8-(difluoromethoxy)-7′,8′-difluoro-3H-spiro[imidazo[1,2-a]pyridine-2,4′-thiochromane]-6-carbonitrile] | 41 | 116 |  | 7 |
| FCOC1=CC(C(F)(F)F)=CN2C[C@@]3(CCSc4c3cnc(C(F)(F)F)c4F)N=C12 [Example 114, (S)-8′-fluoro-8-(fluoromethoxy)-6,7′-bis(trifluoromethyl)-2′,3′-dihydro-3H-spiro[imidazo[1,2-a]pyridine-2,4′-thiopyrano[3,2-c]pyridine]] | 84 | 356 |  | 42 |
| Fc1ccc2c(c1F)OCCC[C@@]21CN2C=C(C(F)(F)F)C=C(OC(F)F)C2=N1 [Example 117, (S)-8′-(difluoromethoxy)-8,9-difluoro-6′-(trifluoromethyl)-3,4-dihydro-2H,3′H-spiro[benzo[b]oxepine-5,2′-imidazo[1,2-a]pyridine]] | 24 | 281 |  | ≤ 4 |
| Fc1c(Cl)ccc2c1COCC[C@@]21CN2C=C(C(F)(F)F)C=C(OC(F)F)C2=N1 [Example 119, (S)-8-chloro-8′-(difluoromethoxy)-9-fluoro-6′-(trifluoromethyl)-3,4-dihydro-1H,3′H-spiro[benzo[c]oxepine-5,2′-imidazo[1,2-a]pyridine]] | 97 | 292 |  | 19 |
